Results published in patent US11319307B2, “2,3-dihydrobenzohurans as bromodomain inhibitors” (GLAXOSMITHKLINE INTELLECTUAL PROPERTY (NO.2) LIMITED, priority 2017, dated 2022).

Tested on: BET family (BRD2, BRD3, BRD4 and BRDT) single and double mutant tandem domain proteins
Assay: Fluorescence Polarisation binding of Reference Compound X to mutant tandem BET proteins
Parameters: species or system Human
Procedure: The competition of the compounds of formula (I) with Reference Compound X for binding to the BET family (BRD2, BRD3, BRD4 and BRDT) was assessed using protein truncates spanning both bromodomain 1 (BD1) and bromodomain 2 (BD2). In order to monitor differential binding to either BD1 or BD2, single residue mutations of key tyrosines to alanine were made in the acetyl lysine binding pockets. To validate this approach, a double residue mutant tandem domain protein was produced for each of the BET family members. Utilising a Fluorescence Polarisation approach, binding affinities for each of the single and double mutants for Reference Compound X were determined. […] The affinities of the single mutated bromdomain tandem proteins for Reference Compound X were equi-potent with the corresponding non-mutated BET protein. […] In the TR-FRET competition assay, Reference Compound X is used at a concentration that is equivalent to the Kd for the non-mutated bromodomain, which ensures that no binding at the mutated bromodomain is detected. […]

SMILES: COc1ccc2c(c1)C(c1ccc(Cl)cc1)=N[C@@H](CC(=O)NCCCCCNC(=O)CCCCCC1(C)/C(=C/C=C/C=C/C3=[N+](CCCCS(=O)(=O)O)c4ccc(S(=O)(=O)O)cc4C3(C)C)N(CCCCS(=O)(=O)[O-])c3ccc(S(=O)(=O)O)cc31)c1nnc(C)n1-2 (some centres unmarked) [Reference Compound X]
- reduction in Kd (affinity for Reference Compound X) (double mutant tandem proteins versus non mutated, wild type tandem BET proteins): > 1000 fold
- reduction of the Kd of the interaction between the mutated bromodomain and Reference Compound X (single mutations of Tyrosine to Alanine): > 1000 fold
